This experiment has as its target T1, Ito (Kv4.3) (Homo sapiens, UniProt Q9UK17).
T1 construct: endogenous in cells; host or cells: freshly isolated human atrial myocytes
T1 sequence (Q9UK17 1-655): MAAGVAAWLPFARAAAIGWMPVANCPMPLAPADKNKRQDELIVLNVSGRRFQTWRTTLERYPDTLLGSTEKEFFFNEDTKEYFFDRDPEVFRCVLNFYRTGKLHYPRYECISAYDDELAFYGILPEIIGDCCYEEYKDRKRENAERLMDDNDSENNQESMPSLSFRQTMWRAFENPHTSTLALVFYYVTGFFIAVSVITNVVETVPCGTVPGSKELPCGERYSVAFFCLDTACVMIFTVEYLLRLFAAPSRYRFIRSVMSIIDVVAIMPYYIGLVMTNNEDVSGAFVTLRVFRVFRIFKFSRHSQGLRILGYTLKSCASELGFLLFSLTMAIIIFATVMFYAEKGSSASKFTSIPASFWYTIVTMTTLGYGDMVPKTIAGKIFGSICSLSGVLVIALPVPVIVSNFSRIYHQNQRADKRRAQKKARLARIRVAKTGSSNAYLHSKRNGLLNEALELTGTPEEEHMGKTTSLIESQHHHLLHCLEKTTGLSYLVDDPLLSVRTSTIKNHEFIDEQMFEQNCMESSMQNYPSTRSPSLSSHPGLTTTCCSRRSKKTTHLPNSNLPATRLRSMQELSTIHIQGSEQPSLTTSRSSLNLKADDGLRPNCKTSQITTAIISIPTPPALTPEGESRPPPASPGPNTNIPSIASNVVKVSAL
T1 sequence (Q9NS61 1-270 partner): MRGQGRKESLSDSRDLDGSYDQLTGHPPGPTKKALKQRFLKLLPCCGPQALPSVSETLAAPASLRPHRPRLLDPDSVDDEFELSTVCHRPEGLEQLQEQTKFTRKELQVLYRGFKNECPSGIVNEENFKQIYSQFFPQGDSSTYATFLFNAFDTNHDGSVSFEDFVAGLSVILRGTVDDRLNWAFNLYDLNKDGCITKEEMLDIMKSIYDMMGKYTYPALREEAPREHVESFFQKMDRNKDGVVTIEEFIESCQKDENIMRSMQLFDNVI
In words: Whole-cell patch clamp in human atrial myocytes: Ito. The class given is cell-based. Here is the method: The blocking profile of the compounds of the invention is determined on the following channels of the human atrial myocytes: INa, Ito, Isus and IK1 channel currents.
Human atrial myocytes: Myocytes were prepared from specimens with grossly normal anatomical aspect, excised from hearts of patients with normal P-wave electrocardiogram, undergoing bypass surgery. Human atrial sample were obtained following approval by the ethical committee. […]
Experiments were performed at room temperature (20-25° C.) for INa and at 32-34° C. for Ito, Isus, IK1. Currents were measured using the whole-cell variant of the patch clamp method. […]
After rupture of the cell membrane to enter the whole-cell mode, current amplitude and kinetics were allowed to stabilize for 3-7 min before initiating the experimental procedure. K^+ currents recorded from human atrial myocytes were elicited by a 500 ms pulse to +60 mV from a holding potential of −50 mV for Ito and Isus. Ito was measured as a peak current amplitude whereas Isus as a current present at the end of the 500 ms voltage pulse. In addition, the area under the curve, before and after compound, were measured over the course of the pulse period. […]

`COc1ccccc1Nc1nc(C)c(C(=O)N[C@H]2CCC[C@@H]2OCc2ccccc2)s1` [Compound 68, 2-(2-methoxy-phenylamino)-4-methyl-thiazole-5-carboxylic acid (1S,2S)-2-(benzyloxycyclopent-1-yl) amide]: the “Block at 10 μM in %: Ito (Kv4.3)” value (10 μM, n = 3 cells) is recorded as 82.0 ± 3.6%. The IC50 (dose-response analysis, read-out: IC50 on the ITO current) was determined as 800 nM.

These data come from patent US20080125432A1 (Devgen NV, priority 2004, published 2008).
